Experimental data reported in PubChem BioAssay AID330 (DTP/NCI, 2004).
Values joined by “and” are separate entries in the source; they are usually repeats but may differ in a detail not shown here. Equal entries are not always repeated. Inconclusive results and toxic doses are left out.

Test system: P388 leukemia ip, CD2F1 mice, survival T/C
Test: NCI In Vivo Anticancer Drug Screen. Data for tumor model P388 Leukemia (intraperitoneal) in CD2F1 (CDF1) mice
Details: endpoint: median survival time, higher = longer survival
Outline: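 Mice carrying the transplanted tumor received test compound or vehicle. Survival was recorded in each group, and the value is the treated-group measurement divided by that of the vehicle-treated control group.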

[1] = dose: 60.0 mg/kg/injection, schedule: Q01DX005 (ip), vehicle: Klucel (hydroxypropylcellulose) (HPC)
[2] = dose: 50.0 mg/kg/injection, schedule: Q01DX009 (ip), vehicle: saline with Tween-80
[3] = dose: 100.0 mg/kg/injection, schedule: Q01DX009 (ip), vehicle: saline with Tween-80
[4] = dose: 200.0 mg/kg/injection, schedule: Q01DX009 (ip), vehicle: saline with Tween-80
[5] = dose: 50.0 mg/kg/injection, schedule: Q01DX009 (ip), vehicle: saline
[6] = dose: 100.0 mg/kg/injection, schedule: Q01DX009 (ip), vehicle: saline
[7] = dose: 200.0 mg/kg/injection, schedule: Q01DX009 (ip), vehicle: saline
[8] = dose: 12.5 mg/kg/injection, schedule: Q01DX009 (ip), vehicle: saline with Tween-80
[9] = dose: 25.0 mg/kg/injection, schedule: Q01DX009 (ip), vehicle: saline with Tween-80
[10] = dose: 6.25 mg/kg/injection, schedule: Q01DX009 (ip), vehicle: saline with Tween-80
[11] = dose: 120.0 mg/kg/injection, schedule: Q01DX005 (ip), vehicle: Klucel (hydroxypropylcellulose) (HPC)
[12] = dose: 240.0 mg/kg/injection, schedule: Q01DX005 (ip), vehicle: Klucel (hydroxypropylcellulose) (HPC)

Compound: CC(C)=NNC1=NC(C)(C)P(=O)(NNc2ncccn2)S1 (centres undefined)
- T/C (dose: 15.0 mg/kg/injection, schedule: Q01DX005 (ip), vehicle: Klucel (hydroxypropylcellulose) (HPC)): 107 % of control
- T/C (dose: 30.0 mg/kg/injection, schedule: Q01DX005 (ip), vehicle: Klucel (hydroxypropylcellulose) (HPC)): 105 % of control
- T/C [1]: 93 % of control
- T/C (dose: 60.0 mg/kg/injection, schedule: Q01DX005 (ip), vehicle: saline): 98 % of control

Compound: COc1cc(C(=O)CCCC(=O)O)cc(OC)c1OC
- T/C [2]: 96 % of control
- T/C [3]: 92 % of control
- T/C [4]: 88 % of control

Compound: CN(C)/C=N/c1c(C#N)c(-c2ccccc2)c(-c2ccccc2)n1-c1ccccc1
- T/C [2]: 97 % of control
- T/C [5]: 98 % of control
- T/C [6]: 93 % of control
- T/C [4]: 96 % of control
- T/C [7]: 87 % of control

Compound: COc1ccc([I+]c2cccc(Cl)c2)cc1Cl
- T/C (dose: 0.09 mg/kg/injection, schedule: Q01DX009 (ip), vehicle: saline with Tween-80): 106 % of control
- T/C (dose: 0.18 mg/kg/injection, schedule: Q01DX009 (ip), vehicle: saline with Tween-80): 112 % of control
- T/C (dose: 0.37 mg/kg/injection, schedule: Q01DX009 (ip), vehicle: saline with Tween-80): 102 % of control
- T/C (dose: 0.75 mg/kg/injection, schedule: Q01DX009 (ip), vehicle: saline with Tween-80): 122 % of control
- T/C [8]: 150 % of control and 159 % of control
- T/C [9]: 106 % of control and 112 % of control

Compound: Cn1c(=O)c2nnn(-c3ccccc3)c2n(C)c1=O
- T/C (dose: 45.0 mg/kg/injection, schedule: Q01DX009 (ip), vehicle: saline with Tween-80): 100 % of control
- T/C (dose: 90.0 mg/kg/injection, schedule: Q01DX009 (ip), vehicle: saline with Tween-80): 115 % of control
- T/C (dose: 180.0 mg/kg/injection, schedule: Q01DX009 (ip), vehicle: saline with Tween-80): 100 % of control

Compound: CCC1=C(C)c2cc3[n-]c(cc4nc(cc5[n-]c(cc1n2)c(C)c5CCC(=O)OC)C(CCC(=O)OC)=C4C)c(C)c3CC.[Ni+2]
- T/C (dose: 18.75 mg/kg/injection, schedule: Q01DX009 (ip), vehicle: saline with Tween-80): 87 % of control
- T/C (dose: 37.5 mg/kg/injection, schedule: Q01DX009 (ip), vehicle: saline with Tween-80): 87 % of control
- T/C (dose: 75.0 mg/kg/injection, schedule: Q01DX009 (ip), vehicle: saline with Tween-80): 94 % of control

Compound: CC(NCCO)C(O)c1ccccc1 (centres undefined)
- T/C [6]: 90 % of control
- T/C [7]: 98 % of control

Compound: CCN(CC)CCN1C(=O)c2cccc3cc(N)cc(c23)C1=O
- T/C (dose: 1.56 mg/kg/injection, schedule: Q01DX009 (ip), vehicle: saline with Tween-80): 101 % of control
- T/C (dose: 1.6 mg/kg/injection, schedule: Q01DX009 (ip), vehicle: saline with Tween-80): 100 % of control
- T/C (dose: 3.12 mg/kg/injection, schedule: Q01DX009 (ip), vehicle: saline with Tween-80): 98 % of control
- T/C (dose: 3.2 mg/kg/injection, schedule: Q01DX009 (ip), vehicle: saline with Tween-80): 108 % of control
- T/C [10]: 98 % of control
- T/C (dose: 6.5 mg/kg/injection, schedule: Q01DX009 (ip), vehicle: saline with Tween-80): 107 % of control and 123 % of control
- T/C [8]: 107 % of control
- T/C (dose: 13.1 mg/kg/injection, schedule: Q01DX009 (ip), vehicle: saline with Tween-80): 121 % of control and 123 % of control
- T/C [9]: 114 % of control
- T/C (dose: 26.0 mg/kg/injection, schedule: Q01DX009 (ip), vehicle: saline with Tween-80): 124 % of control
- T/C [2]: 160 % of control

Compound: C/C(=C\C(=O)O)CC(=O)O
- T/C (dose: 100.0 mg/kg/injection, schedule: Q04DX003 (ip), vehicle: saline with Tween-80): 92 % of control
- T/C (dose: 200.0 mg/kg/injection, schedule: Q04DX003 (ip), vehicle: saline with Tween-80): 97 % of control
- T/C (dose: 400.0 mg/kg/injection, schedule: Q04DX003 (ip), vehicle: saline with Tween-80): 88 % of control

Compound: N#Cc1c(C#N)c(O)c2c(N)cccc2c1O
- T/C (dose: 100.0 mg/kg/injection, schedule: Q04DX002 (ip), vehicle: saline with Tween-80): 105 % of control
- T/C (dose: 200.0 mg/kg/injection, schedule: Q04DX002 (ip), vehicle: saline with Tween-80): 108 % of control

Compound: O=C1CSC(c2cccs2)N1c1nncs1 (centres undefined)
- T/C [1]: 100 % of control
- T/C [11]: 100 % of control
- T/C [12]: 172 % of control

Compound: CC(=O)c1ccc(N(C)C(=O)C(Cl)Cl)cc1
- T/C (dose: 100.0 mg/kg/injection, schedule: Q04DX003 (ip), vehicle: Klucel (hydroxypropylcellulose) (HPC)): 100 % of control
- T/C (dose: 200.0 mg/kg/injection, schedule: Q04DX003 (ip), vehicle: Klucel (hydroxypropylcellulose) (HPC)): 100 % of control
- T/C (dose: 400.0 mg/kg/injection, schedule: Q04DX003 (ip), vehicle: Klucel (hydroxypropylcellulose) (HPC)): 100 % of control

Compound: CN(C)c1ccc(/C=C/C=C2C(=O)NC(=S)NC2=O)cc1
- T/C (dose: 100.0 mg/kg/injection, schedule: Q04DX002 (ip), vehicle: Klucel (hydroxypropylcellulose) (HPC)): 89 % of control
- T/C (dose: 200.0 mg/kg/injection, schedule: Q04DX002 (ip), vehicle: Klucel (hydroxypropylcellulose) (HPC)): 92 % of control
- T/C (dose: 400.0 mg/kg/injection, schedule: Q04DX002 (ip), vehicle: Klucel (hydroxypropylcellulose) (HPC)): 87 % of control

Compound: CC(=O)c1ccc(OCc2ccccc2)cc1OCc1ccccc1
- T/C [5]: 97 % of control
- T/C [6]: 100 % of control
- T/C [7]: 98 % of control

Compound: CC1=C(CO)C(=O)OC(C(C)C2CCC3C4CC5OC56C(O)C(N5CCCC5)CC(=O)C6(C)C4CCC23C)C1 (centres undefined)
- T/C (dose: 8.75 mg/kg/injection, schedule: Q01DX005 (ip), vehicle: Klucel (hydroxypropylcellulose) (HPC)): 94 % of control
- T/C (dose: 17.5 mg/kg/injection, schedule: Q01DX005 (ip), vehicle: Klucel (hydroxypropylcellulose) (HPC)): 97 % of control
- T/C (dose: 35.0 mg/kg/injection, schedule: Q01DX005 (ip), vehicle: Klucel (hydroxypropylcellulose) (HPC)): 99 % of control
- T/C (dose: 70.0 mg/kg/injection, schedule: Q01DX005 (ip), vehicle: Klucel (hydroxypropylcellulose) (HPC)): 111 % of control
- T/C (dose: 140.0 mg/kg/injection, schedule: Q01DX005 (ip), vehicle: Klucel (hydroxypropylcellulose) (HPC)): 103 % of control

Compound: O=C(NN1CCOCC1)C(F)(F)F
- T/C (dose: 100.0 mg/kg/injection, schedule: Q01DX001 (ip), vehicle: saline): 100 % of control
- T/C (dose: 200.0 mg/kg/injection, schedule: Q01DX001 (ip), vehicle: saline): 99 % of control
- T/C (dose: 400.0 mg/kg/injection, schedule: Q01DX001 (ip), vehicle: saline): 99 % of control

Compound: C[N+]1=C(/C=C/Nc2ccc3ccc4cccc5ccc2c3c45)C(C)(C)c2ccccc21
- T/C [10]: 108 % of control
- T/C [8]: 100 % of control
- T/C [9]: 105 % of control
- T/C [2]: 89 % of control

Compound: S=P(Oc1ccccc1)(N1CCCCN1)N1CCCCN1
- T/C [1]: 97 % of control
- T/C [11]: 107 % of control
- T/C [12]: 100 % of control

Compound: COc1cc2ccc(=O)oc2cc1O
- T/C (dose: 3.75 mg/kg/injection, schedule: Q01DX009 (ip), vehicle: saline with Tween-80): 100 % of control
- T/C (dose: 7.5 mg/kg/injection, schedule: Q01DX009 (ip), vehicle: saline with Tween-80): 103 % of control and 98 % of control
- T/C (dose: 15.0 mg/kg/injection, schedule: Q01DX009 (ip), vehicle: saline with Tween-80): 100 % of control and 107 % of control
- T/C (dose: 30.0 mg/kg/injection, schedule: Q01DX009 (ip), vehicle: saline with Tween-80): 104 % of control and 91 % of control
- T/C [5]: 95 % of control
- T/C (dose: 50.0 mg/kg/injection, schedule: Q01DX009 (ip), vehicle: suspension in saline): 99 % of control and 106 % of control
- T/C [6]: 100 % of control
- T/C (dose: 100.0 mg/kg/injection, schedule: Q01DX009 (ip), vehicle: suspension in saline): 104 % of control and 109 % of control
- T/C [7]: 100 % of control
- T/C (dose: 200.0 mg/kg/injection, schedule: Q01DX009 (ip), vehicle: suspension in saline): 107 % of control and 108 % of control
- T/C (dose: 400.0 mg/kg/injection, schedule: Q01DX009 (ip), vehicle: saline): 100 % of control
- T/C (dose: 400.0 mg/kg/injection, schedule: Q01DX009 (ip), vehicle: suspension in saline): 111 % of control

Compound: c1csc(NC(Nc2nccs2)C23CC4CC(CC(C4)C2)C3)n1
- T/C [2]: 96 % of control
- T/C [3]: 101 % of control
- T/C [4]: 100 % of control

Compound: CC(C)(C)N(OC(=O)c1ccc(Cl)cc1)c1ccccc1
- T/C [9]: 99 % of control
- T/C [2]: 99 % of control

Compound: CC(Nc1cnccn1)Nc1cnccn1
- T/C (dose: 50.0 mg/kg/injection, schedule: Q01DX005 (ip), vehicle: Klucel (hydroxypropylcellulose) (HPC)): 102 % of control
- T/C (dose: 100.0 mg/kg/injection, schedule: Q01DX005 (ip), vehicle: Klucel (hydroxypropylcellulose) (HPC)): 105 % of control
- T/C (dose: 200.0 mg/kg/injection, schedule: Q01DX005 (ip), vehicle: Klucel (hydroxypropylcellulose) (HPC)): 104 % of control
